Measured values as given in the NIST ThermoML archive (doi:10.1016/j.fluid.2014.09.014).
Numbers after ± are expanded uncertainties.

Test: refractive index (other wavelength) (dimensionless); xn = mol fraction of the nth substance listed
Details: 101 kPa, Liquid, Standard Abbe refractometry

CC(C)OC(C)C [diisopropyl ether] + CO
Details | refractive index
293.15 K, Wavelength=632.8 nm, x2 = 0.804 | 1.34816 ± 0.00033
293.15 K, Wavelength=632.8 nm, x2 = 0.807 | 1.34801 ± 0.00033
293.15 K, Wavelength=632.8 nm, x2 = 0.8727 | 1.34273 ± 0.00032
293.15 K, Wavelength=632.8 nm, x2 = 0.9233 | 1.3359 ± 0.00033
293.15 K, Wavelength=632.8 nm, x2 = 0.9253 | 1.33772 ± 0.00033
293.15 K, Wavelength=632.8 nm, x2 = 0.9527 | 1.33457 ± 0.00032
293.15 K, Wavelength=632.8 nm, x2 = 0.9773 | 1.33112 ± 0.00032
293.15 K, Wavelength=632.8 nm, x2 = 0.989 | 1.33 ± 0.00032
293.15 K, Wavelength=632.8 nm, x2 = 0.9964 | 1.32856 ± 0.00032
293.15 K, Wavelength=644 nm, x2 = 0 | 1.36644 ± 0.00043
293.15 K, Wavelength=644 nm, x2 = 0.0423 | 1.36648 ± 0.00043
293.15 K, Wavelength=644 nm, x2 = 0.0424 | 1.3664 ± 0.00043
293.15 K, Wavelength=644 nm, x2 = 0.082 | 1.36644 ± 0.00042
293.15 K, Wavelength=644 nm, x2 = 0.0822 | 1.36633 ± 0.00042
293.15 K, Wavelength=644 nm, x2 = 0.1171 | 1.36619 ± 0.00041
293.15 K, Wavelength=644 nm, x2 = 0.1271 | 1.36622 ± 0.00041
293.15 K, Wavelength=644 nm, x2 = 0.1827 | 1.36579 ± 0.0004
293.15 K, Wavelength=644 nm, x2 = 0.2162 | 1.36556 ± 0.0004
293.15 K, Wavelength=644 nm, x2 = 0.251 | 1.36579 ± 0.00039
293.15 K, Wavelength=644 nm, x2 = 0.3298 | 1.36482 ± 0.00038
293.15 K, Wavelength=644 nm, x2 = 0.3577 | 1.36338 ± 0.00038
293.15 K, Wavelength=644 nm, x2 = 0.4497 | 1.36251 ± 0.00037
293.15 K, Wavelength=644 nm, x2 = 0.4525 | 1.36301 ± 0.00037
293.15 K, Wavelength=644 nm, x2 = 0.5543 | 1.36055 ± 0.00036
293.15 K, Wavelength=644 nm, x2 = 0.609 | 1.35745 ± 0.00035
293.15 K, Wavelength=644 nm, x2 = 0.6529 | 1.35595 ± 0.00034
293.15 K, Wavelength=644 nm, x2 = 0.7504 | 1.35211 ± 0.00033
293.15 K, Wavelength=644 nm, x2 = 0.804 | 1.34788 ± 0.00033
293.15 K, Wavelength=644 nm, x2 = 0.807 | 1.34773 ± 0.00033
293.15 K, Wavelength=644 nm, x2 = 0.8727 | 1.34246 ± 0.00032
293.15 K, Wavelength=644 nm, x2 = 0.9233 | 1.33564 ± 0.00033
293.15 K, Wavelength=644 nm, x2 = 0.9253 | 1.33746 ± 0.00033
293.15 K, Wavelength=644 nm, x2 = 0.9527 | 1.33431 ± 0.00032
293.15 K, Wavelength=644 nm, x2 = 0.9773 | 1.33086 ± 0.00032
293.15 K, Wavelength=644 nm, x2 = 0.989 | 1.32975 ± 0.00032
293.15 K, Wavelength=644 nm, x2 = 0.9964 | 1.32831 ± 0.00032
293.15 K, Wavelength=706.5 nm, x2 = 0 | 1.36501 ± 0.00043
293.15 K, Wavelength=706.5 nm, x2 = 0.0423 | 1.36504 ± 0.00043
293.15 K, Wavelength=706.5 nm, x2 = 0.0424 | 1.36476 ± 0.00043
293.15 K, Wavelength=706.5 nm, x2 = 0.082 | 1.365 ± 0.00042
293.15 K, Wavelength=706.5 nm, x2 = 0.0822 | 1.36487 ± 0.00042
293.15 K, Wavelength=706.5 nm, x2 = 0.1171 | 1.36476 ± 0.00041
293.15 K, Wavelength=706.5 nm, x2 = 0.1271 | 1.36479 ± 0.00041
293.15 K, Wavelength=706.5 nm, x2 = 0.1827 | 1.36436 ± 0.0004
293.15 K, Wavelength=706.5 nm, x2 = 0.2162 | 1.36414 ± 0.0004
293.15 K, Wavelength=706.5 nm, x2 = 0.251 | 1.36436 ± 0.00039
293.15 K, Wavelength=706.5 nm, x2 = 0.3298 | 1.3634 ± 0.00038
293.15 K, Wavelength=706.5 nm, x2 = 0.3577 | 1.36197 ± 0.00038
293.15 K, Wavelength=706.5 nm, x2 = 0.4497 | 1.3611 ± 0.00037
293.15 K, Wavelength=706.5 nm, x2 = 0.4525 | 1.3616 ± 0.00037
293.15 K, Wavelength=706.5 nm, x2 = 0.522 | 1.35939 ± 0.00036
293.15 K, Wavelength=706.5 nm, x2 = 0.5543 | 1.35915 ± 0.00035
293.15 K, Wavelength=706.5 nm, x2 = 0.609 | 1.35606 ± 0.00035
293.15 K, Wavelength=706.5 nm, x2 = 0.6529 | 1.35456 ± 0.00034
293.15 K, Wavelength=706.5 nm, x2 = 0.804 | 1.34652 ± 0.00033
293.15 K, Wavelength=706.5 nm, x2 = 0.807 | 1.34638 ± 0.00033
293.15 K, Wavelength=706.5 nm, x2 = 0.8727 | 1.34113 ± 0.00032
293.15 K, Wavelength=706.5 nm, x2 = 0.9233 | 1.33435 ± 0.00033
293.15 K, Wavelength=706.5 nm, x2 = 0.9253 | 1.33617 ± 0.00033
293.15 K, Wavelength=706.5 nm, x2 = 0.9527 | 1.33303 ± 0.00034
293.15 K, Wavelength=706.5 nm, x2 = 0.9773 | 1.32963 ± 0.00032
293.15 K, Wavelength=706.5 nm, x2 = 0.989 | 1.32951 ± 0.00032
293.15 K, Wavelength=706.5 nm, x2 = 0.9964 | 1.32708 ± 0.00032
298.15 K, Wavelength=40.47 nm, x2 = 0 | 1.37607 ± 0.00044
298.15 K, Wavelength=40.47 nm, x2 = 0.0423 | 1.37664 ± 0.00043
298.15 K, Wavelength=40.47 nm, x2 = 0.0424 | 1.37602 ± 0.00043
298.15 K, Wavelength=40.47 nm, x2 = 0.082 | 1.37599 ± 0.00042
298.15 K, Wavelength=40.47 nm, x2 = 0.0822 | 1.37598 ± 0.00042
298.15 K, Wavelength=40.47 nm, x2 = 0.1171 | 1.3758 ± 0.00041
298.15 K, Wavelength=40.47 nm, x2 = 0.1271 | 1.37584 ± 0.00041
298.15 K, Wavelength=40.47 nm, x2 = 0.1827 | 1.37543 ± 0.0004
298.15 K, Wavelength=40.47 nm, x2 = 0.2162 | 1.37664 ± 0.0004
298.15 K, Wavelength=40.47 nm, x2 = 0.251 | 1.37352 ± 0.00039
298.15 K, Wavelength=40.47 nm, x2 = 0.3298 | 1.37448 ± 0.00038
298.15 K, Wavelength=40.47 nm, x2 = 0.3577 | 1.37299 ± 0.00037
298.15 K, Wavelength=40.47 nm, x2 = 0.4497 | 1.37205 ± 0.00037
298.15 K, Wavelength=40.47 nm, x2 = 0.4525 | 1.37262 ± 0.00037
298.15 K, Wavelength=40.47 nm, x2 = 0.522 | 1.37025 ± 0.00035
298.15 K, Wavelength=40.47 nm, x2 = 0.5543 | 1.3698 ± 0.00035
298.15 K, Wavelength=40.47 nm, x2 = 0.609 | 1.36677 ± 0.00034
298.15 K, Wavelength=40.47 nm, x2 = 0.6529 | 1.36523 ± 0.00034
298.15 K, Wavelength=40.47 nm, x2 = 0.7504 | 1.36122 ± 0.00033
298.15 K, Wavelength=40.47 nm, x2 = 0.804 | 1.35681 ± 0.00033
298.15 K, Wavelength=40.47 nm, x2 = 0.807 | 1.3567 ± 0.00033
298.15 K, Wavelength=40.47 nm, x2 = 0.8727 | 1.35132 ± 0.00032
298.15 K, Wavelength=40.47 nm, x2 = 0.9233 | 1.34416 ± 0.00033
298.15 K, Wavelength=40.47 nm, x2 = 0.9253 | 1.34607 ± 0.00033
298.15 K, Wavelength=40.47 nm, x2 = 0.9527 | 1.34281 ± 0.00032
298.15 K, Wavelength=40.47 nm, x2 = 0.9773 | 1.33922 ± 0.00032
298.15 K, Wavelength=40.47 nm, x2 = 0.989 | 1.33798 ± 0.00032
298.15 K, Wavelength=40.47 nm, x2 = 0.9964 | 1.33656 ± 0.00031
298.15 K, Wavelength=435.8 nm, x2 = 0 | 1.37308 ± 0.00043
298.15 K, Wavelength=435.8 nm, x2 = 0.0423 | 1.37305 ± 0.00043
